Patent publication EP4722207A1, “OXOISOINDOLINYL-SUBSTITUTED TETRAHYDROPYRIMIDINEDIONE DERIVATIVE AND USE THEREOF” (Gluetacs Therapeutics (Shanghai) Co., Ltd., priority 2023, dated 2024)

Experiments:
Format in all cases: cell-based
Details in all cases: compounds at 50 nM and 500 nM, 24 hours
[1] = target: T1, GSPT1 (Homo sapiens, UniProt P15170+Q96SW2); assay: Western-blot assay, substrate protein degradation in hPBMCs: GSPT1
T1 construct: effects of the compounds of the present disclosure on the expression of target proteins in cells; endogenous in cells; host or cells: human PBMCs (hPBMCs)

[2] = target: T2, IKZF2 (Homo sapiens, UniProt Q96SW2+Q9UKS7); assay: Western-blot assay, substrate protein degradation in hPBMCs: IKZF2
T2 construct: effects of the compounds of the present disclosure on the expression of target proteins in cells; endogenous in cells; host or cells: human PBMCs (hPBMCs)

[3] = target: T3, WEE1 (Homo sapiens, UniProt P30291+Q96SW2); assay: Western-blot assay, substrate protein degradation in hPBMCs: WEE1
T3 construct: effects of the compounds of the present disclosure on the expression of target proteins in cells; endogenous in cells; host or cells: human PBMCs (hPBMCs)

[4] = target: T4, IKZF3 (Homo sapiens, UniProt Q96SW2+Q9UKT9); assay: Western-blot assay, substrate protein degradation in hPBMCs: IKZF3
T4 construct: effects of the compounds of the present disclosure on the expression of target proteins in cells; endogenous in cells; host or cells: human PBMCs (hPBMCs)

[5] = target: T5, CK1α (Homo sapiens, UniProt P48729+Q96SW2); assay: Western-blot assay, substrate protein degradation in hPBMCs: CK1α
T5 construct: effects of the compounds of the present disclosure on the expression of target proteins in cells; endogenous in cells; host or cells: human PBMCs (hPBMCs)

[6] = target: T6, IKZF1 (Homo sapiens, UniProt Q13422+Q96SW2); assay: Western-blot assay, substrate protein degradation in hPBMCs: IKZF1
T6 construct: effects of the compounds of the present disclosure on the expression of target proteins in cells; endogenous in cells; host or cells: human PBMCs (hPBMCs)
T6 sequence (Q13422 whole entry): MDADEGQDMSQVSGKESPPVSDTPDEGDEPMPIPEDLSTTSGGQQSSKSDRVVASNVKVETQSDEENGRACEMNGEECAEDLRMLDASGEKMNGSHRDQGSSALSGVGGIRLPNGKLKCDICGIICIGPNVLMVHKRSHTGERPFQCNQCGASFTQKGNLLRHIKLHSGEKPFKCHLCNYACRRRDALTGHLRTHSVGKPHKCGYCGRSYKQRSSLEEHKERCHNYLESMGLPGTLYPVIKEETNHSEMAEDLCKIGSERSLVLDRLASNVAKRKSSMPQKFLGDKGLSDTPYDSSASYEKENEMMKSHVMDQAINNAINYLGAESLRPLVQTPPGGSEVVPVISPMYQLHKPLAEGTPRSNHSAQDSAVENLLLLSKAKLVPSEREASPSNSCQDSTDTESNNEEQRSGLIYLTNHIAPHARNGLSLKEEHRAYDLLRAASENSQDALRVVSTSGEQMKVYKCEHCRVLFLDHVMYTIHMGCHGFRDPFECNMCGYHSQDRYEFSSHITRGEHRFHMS
T6 sequence (Q96SW2 whole entry): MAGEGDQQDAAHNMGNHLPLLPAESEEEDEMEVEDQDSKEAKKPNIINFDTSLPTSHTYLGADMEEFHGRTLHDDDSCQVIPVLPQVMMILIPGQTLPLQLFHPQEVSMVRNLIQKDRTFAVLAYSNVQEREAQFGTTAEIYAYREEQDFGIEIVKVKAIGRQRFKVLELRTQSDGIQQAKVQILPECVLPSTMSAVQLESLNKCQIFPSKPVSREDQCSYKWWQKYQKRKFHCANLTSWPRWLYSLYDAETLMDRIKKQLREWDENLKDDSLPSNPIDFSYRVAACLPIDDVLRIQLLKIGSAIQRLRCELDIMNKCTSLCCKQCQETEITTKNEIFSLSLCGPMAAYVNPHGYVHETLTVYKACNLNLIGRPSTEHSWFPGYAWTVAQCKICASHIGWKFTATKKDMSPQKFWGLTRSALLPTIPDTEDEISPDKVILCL
T6 sequence (Q16531 whole entry partner): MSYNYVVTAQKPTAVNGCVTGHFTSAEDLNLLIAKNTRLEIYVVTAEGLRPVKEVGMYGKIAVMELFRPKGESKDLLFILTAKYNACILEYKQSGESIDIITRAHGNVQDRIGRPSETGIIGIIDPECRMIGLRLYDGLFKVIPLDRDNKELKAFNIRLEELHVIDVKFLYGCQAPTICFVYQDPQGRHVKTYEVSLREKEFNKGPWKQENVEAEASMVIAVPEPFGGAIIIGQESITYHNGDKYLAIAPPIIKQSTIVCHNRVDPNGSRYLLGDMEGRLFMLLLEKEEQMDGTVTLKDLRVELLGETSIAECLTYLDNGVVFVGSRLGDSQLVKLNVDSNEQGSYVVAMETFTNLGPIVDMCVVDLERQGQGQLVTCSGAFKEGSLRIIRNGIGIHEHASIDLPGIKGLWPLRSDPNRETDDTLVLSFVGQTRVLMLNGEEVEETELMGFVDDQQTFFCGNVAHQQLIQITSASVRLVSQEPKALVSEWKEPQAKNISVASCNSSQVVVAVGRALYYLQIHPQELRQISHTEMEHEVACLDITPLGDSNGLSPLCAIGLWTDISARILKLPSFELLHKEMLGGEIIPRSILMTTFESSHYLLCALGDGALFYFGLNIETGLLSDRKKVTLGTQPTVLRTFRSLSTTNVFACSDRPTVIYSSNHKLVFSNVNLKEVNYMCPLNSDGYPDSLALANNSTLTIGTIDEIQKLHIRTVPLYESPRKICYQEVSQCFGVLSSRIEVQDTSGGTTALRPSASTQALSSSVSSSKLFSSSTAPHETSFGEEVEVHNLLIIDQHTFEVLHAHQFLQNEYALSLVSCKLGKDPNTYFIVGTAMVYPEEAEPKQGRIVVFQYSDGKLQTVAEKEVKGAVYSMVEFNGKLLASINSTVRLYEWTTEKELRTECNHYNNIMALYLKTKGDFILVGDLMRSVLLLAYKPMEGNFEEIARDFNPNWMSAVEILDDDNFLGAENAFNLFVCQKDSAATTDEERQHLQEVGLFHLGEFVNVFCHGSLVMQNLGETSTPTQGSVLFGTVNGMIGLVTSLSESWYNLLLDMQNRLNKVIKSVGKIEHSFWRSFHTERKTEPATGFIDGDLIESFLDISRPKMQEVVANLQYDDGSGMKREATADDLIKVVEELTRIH

T1 sequence (P15170 whole entry): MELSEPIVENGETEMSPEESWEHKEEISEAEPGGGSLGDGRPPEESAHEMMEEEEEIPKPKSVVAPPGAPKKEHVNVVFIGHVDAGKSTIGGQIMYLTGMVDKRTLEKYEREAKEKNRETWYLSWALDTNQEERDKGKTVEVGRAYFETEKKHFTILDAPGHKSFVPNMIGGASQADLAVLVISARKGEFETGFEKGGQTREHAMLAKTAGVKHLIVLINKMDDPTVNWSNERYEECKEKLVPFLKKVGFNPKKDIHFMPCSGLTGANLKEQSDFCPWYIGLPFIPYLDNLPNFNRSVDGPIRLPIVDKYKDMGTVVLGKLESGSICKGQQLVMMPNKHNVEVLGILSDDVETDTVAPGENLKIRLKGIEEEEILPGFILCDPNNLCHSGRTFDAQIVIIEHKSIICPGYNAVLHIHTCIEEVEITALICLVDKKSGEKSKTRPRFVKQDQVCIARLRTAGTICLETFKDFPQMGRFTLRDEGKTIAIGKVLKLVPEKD
T1 sequence (Q96SW2 whole entry): as the sequence (Q96SW2 whole entry) above
T1 sequence (Q16531 whole entry partner): as the sequence (Q16531 whole entry partner) above
T2 sequence (Q9UKS7 whole entry): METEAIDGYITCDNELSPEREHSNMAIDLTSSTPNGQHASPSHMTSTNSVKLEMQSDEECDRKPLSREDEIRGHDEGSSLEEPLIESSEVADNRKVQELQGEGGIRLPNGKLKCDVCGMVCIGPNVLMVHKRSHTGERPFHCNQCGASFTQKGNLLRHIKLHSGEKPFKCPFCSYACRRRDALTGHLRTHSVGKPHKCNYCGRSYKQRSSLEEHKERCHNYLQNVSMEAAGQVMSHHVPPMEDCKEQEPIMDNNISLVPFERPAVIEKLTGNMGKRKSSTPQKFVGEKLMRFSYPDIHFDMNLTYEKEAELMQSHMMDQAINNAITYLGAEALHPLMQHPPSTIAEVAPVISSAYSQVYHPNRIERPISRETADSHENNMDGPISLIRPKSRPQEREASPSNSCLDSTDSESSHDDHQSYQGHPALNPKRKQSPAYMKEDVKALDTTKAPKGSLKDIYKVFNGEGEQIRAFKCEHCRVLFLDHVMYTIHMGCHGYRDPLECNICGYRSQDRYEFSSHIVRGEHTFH
T2 sequence (Q96SW2 whole entry): as the sequence (Q96SW2 whole entry) above
T2 sequence (Q16531 whole entry partner): as the sequence (Q16531 whole entry partner) above
T4 sequence (Q9UKT9 whole entry): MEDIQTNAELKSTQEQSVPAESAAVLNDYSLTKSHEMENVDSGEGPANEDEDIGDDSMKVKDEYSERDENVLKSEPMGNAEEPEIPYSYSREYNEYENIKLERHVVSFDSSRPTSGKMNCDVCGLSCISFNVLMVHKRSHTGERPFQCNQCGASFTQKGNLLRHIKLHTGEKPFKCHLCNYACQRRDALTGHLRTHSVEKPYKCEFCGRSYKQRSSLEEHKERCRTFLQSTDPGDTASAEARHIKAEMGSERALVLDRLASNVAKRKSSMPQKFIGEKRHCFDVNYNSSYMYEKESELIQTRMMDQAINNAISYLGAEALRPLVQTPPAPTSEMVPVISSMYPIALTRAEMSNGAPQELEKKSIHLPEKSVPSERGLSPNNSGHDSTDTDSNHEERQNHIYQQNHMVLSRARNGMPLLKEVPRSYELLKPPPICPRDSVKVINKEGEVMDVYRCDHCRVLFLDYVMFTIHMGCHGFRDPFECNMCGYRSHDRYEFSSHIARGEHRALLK
T4 sequence (Q96SW2 whole entry): as the sequence (Q96SW2 whole entry) above
T4 sequence (Q16531 whole entry partner): as the sequence (Q16531 whole entry partner) above
T3 sequence (P30291 whole entry): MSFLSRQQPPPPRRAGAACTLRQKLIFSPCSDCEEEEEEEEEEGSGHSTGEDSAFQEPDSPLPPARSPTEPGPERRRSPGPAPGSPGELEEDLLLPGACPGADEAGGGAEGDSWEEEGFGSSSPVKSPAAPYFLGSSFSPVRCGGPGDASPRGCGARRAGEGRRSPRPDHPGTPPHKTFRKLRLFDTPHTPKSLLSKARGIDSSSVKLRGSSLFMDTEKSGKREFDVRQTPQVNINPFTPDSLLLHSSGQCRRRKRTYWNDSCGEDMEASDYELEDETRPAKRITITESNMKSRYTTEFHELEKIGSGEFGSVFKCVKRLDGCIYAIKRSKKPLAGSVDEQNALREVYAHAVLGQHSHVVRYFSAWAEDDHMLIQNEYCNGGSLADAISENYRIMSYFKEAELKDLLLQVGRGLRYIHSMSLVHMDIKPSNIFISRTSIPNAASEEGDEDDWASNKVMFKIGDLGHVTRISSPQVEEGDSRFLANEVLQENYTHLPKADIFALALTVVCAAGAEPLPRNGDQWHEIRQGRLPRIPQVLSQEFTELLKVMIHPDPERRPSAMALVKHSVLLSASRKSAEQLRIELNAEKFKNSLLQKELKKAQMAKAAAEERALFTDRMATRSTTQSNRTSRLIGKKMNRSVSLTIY
T3 sequence (Q96SW2 whole entry): as the sequence (Q96SW2 whole entry) above
T3 sequence (Q16531 whole entry partner): as the sequence (Q16531 whole entry partner) above

SMILES | GSPT1 substrate protein remaining % [1] | IKZF2 substrate protein remaining % [2] | WEE1 substrate protein remaining % [3] | IKZF3 substrate protein remaining % [4] | CK1α substrate protein remaining % [5] | IKZF1 substrate protein remaining % [6]
O=C1CCN(N2C(=O)c3ccc(CN4CCN(c5ncc(Cl)cc5Cl)CC4)cc3C2=O)C(=O)N1 [GT-06969, 5-((4-(3,5-dichloropyridin-2-yl)piperazin-1-yl)methyl)-2-(2,4-dioxotetrahydropyrimidin-1(2H)-yl)isoindoline-1,3-dione] | B ("B" is defined as 80%< substrate protein remaining %≤ 100%) | A ("A" is defined as 0% ≤ substrate protein remaining % ≤ 80%) | A ("A" is defined as 0% ≤ substrate protein remaining % ≤ 80%) | B ("B" is defined as 80%< substrate protein remaining %≤ 100%) | B ("B" is defined as 80%< substrate protein remaining %≤ 100%) | B ("B" is defined as 80%< substrate protein remaining %≤ 100%)
O=C1CCN(N2C(=O)c3ccc(CN4CCN(c5nccc(I)c5F)CC4)cc3C2=O)C(=O)N1 [GT-06970, 2-(2,4-dioxotetrahydropyrimidin-1(2H)-yl)-5-((4-(3-fluoro-4-iodopyridin-2-yl)piperazin-1-yl)methyl)isoindoline-1,3-dione] | B ("B" is defined as 80%< substrate protein remaining %≤ 100%) | A ("A" is defined as 0% ≤ substrate protein remaining % ≤ 80%) | A ("A" is defined as 0% ≤ substrate protein remaining % ≤ 80%) | B ("B" is defined as 80%< substrate protein remaining %≤ 100%) | B ("B" is defined as 80%< substrate protein remaining %≤ 100%) | B ("B" is defined as 80%< substrate protein remaining %≤ 100%)
O=C1CCN(N2C(=O)c3ccc(CN4CCN(c5cccnc5)CC4)cc3C2=O)C(=O)N1 [GT-06971, 2-(2,4-dioxotetrahydropyrimidin-1(2H)-yl)-5-((4-(pyridin-3-yl)piperazin-1-yl)methyl)isoindoline-1,3-dione] | B ("B" is defined as 80%< substrate protein remaining %≤ 100%) | A ("A" is defined as 0% ≤ substrate protein remaining % ≤ 80%) | A ("A" is defined as 0% ≤ substrate protein remaining % ≤ 80%) | B ("B" is defined as 80%< substrate protein remaining %≤ 100%) | B ("B" is defined as 80%< substrate protein remaining %≤ 100%) | B ("B" is defined as 80%< substrate protein remaining %≤ 100%)
O=C1CCN(N2C(=O)c3ccc(CN4CCN(c5cncc(Cl)c5Cl)CC4)cc3C2=O)C(=O)N1 [GT-06972, 5-((4-(4,5-dichloropyridin-3-yl)piperazin-1-yl)methyl)-2-(2,4-dioxotetrahydropyrimidin-1(2H)-yl)isoindoline-1,3-dione] | B ("B" is defined as 80%< substrate protein remaining %≤ 100%) | A ("A" is defined as 0% ≤ substrate protein remaining % ≤ 80%) | A ("A" is defined as 0% ≤ substrate protein remaining % ≤ 80%) | B ("B" is defined as 80%< substrate protein remaining %≤ 100%) | B ("B" is defined as 80%< substrate protein remaining %≤ 100%) | B ("B" is defined as 80%< substrate protein remaining %≤ 100%)
O=C1CCN(N2C(=O)c3ccc(CN4CCN(c5c(Cl)ccnc5Cl)CC4)cc3C2=O)C(=O)N1 [GT-06973, 5-((4-(2,4-dichloropyridin-3-yl)piperazin-1-yl)methyl)-2-(2,4-dioxotetrahydropyrimidin-1(2H)-yl)isoindoline-1,3-dione] | B ("B" is defined as 80%< substrate protein remaining %≤ 100%) | B ("B" is defined as 80%< substrate protein remaining %≤ 100%) | A ("A" is defined as 0% ≤ substrate protein remaining % ≤ 80%) | A ("A" is defined as 0% ≤ substrate protein remaining % ≤ 80%) | B ("B" is defined as 80%< substrate protein remaining %≤ 100%) | A ("A" is defined as 0% ≤ substrate protein remaining % ≤ 80%)
O=C1CCN(N2Cc3cc(CN4CCN(c5c(Cl)ccnc5Cl)CC4)ccc3C2=O)C(=O)N1 [GT-06974, 1-(5-((4-(2,4-dichloropyridin-3-yl)piperazin-1-yl)methyl)-1-oxoisoindolin-2-yl)dihydropyrimidine-2,4(1H,3H)-dione] | B ("B" is defined as 80%< substrate protein remaining %≤ 100%) | B ("B" is defined as 80%< substrate protein remaining %≤ 100%) | A ("A" is defined as 0% ≤ substrate protein remaining % ≤ 80%) | A ("A" is defined as 0% ≤ substrate protein remaining % ≤ 80%) | B ("B" is defined as 80%< substrate protein remaining %≤ 100%) | A ("A" is defined as 0% ≤ substrate protein remaining % ≤ 80%)
O=C1CCN(N2C(=O)c3ccc(CN4CCN(c5ccc(Cl)nc5)CC4)cc3C2=O)C(=O)N1 [GT-07027, 5-((4-(6-chloropyridin-3-yl)piperazin-1-yl)methyl)-2-(2,4-dioxotetrahydropyrimidin-1(2H)-yl)isoindoline-1,3-dione] | A ("A" is defined as 0% ≤ substrate protein remaining % ≤ 80%) | B ("B" is defined as 80%< substrate protein remaining %≤ 100%) | A ("A" is defined as 0% ≤ substrate protein remaining % ≤ 80%) | B ("B" is defined as 80%< substrate protein remaining %≤ 100%) | B ("B" is defined as 80%< substrate protein remaining %≤ 100%) | B ("B" is defined as 80%< substrate protein remaining %≤ 100%)
O=C1CCN(N2Cc3cc(CN4CCN(c5ncnc(Cl)c5Cl)CC4)ccc3C2=O)C(=O)N1 [GT-07028, 1-(5-((4-(5,6-dichloropyrimidin-4-yl)piperazin-1-yl)methyl)-1-oxoisoindolin-2-yl)dihydropyrimidine-2,4(1H,3H)-dione] | A ("A" is defined as 0% ≤ substrate protein remaining % ≤ 80%) | B ("B" is defined as 80%< substrate protein remaining %≤ 100%) | A ("A" is defined as 0% ≤ substrate protein remaining % ≤ 80%) | B ("B" is defined as 80%< substrate protein remaining %≤ 100%) | B ("B" is defined as 80%< substrate protein remaining %≤ 100%) | B ("B" is defined as 80%< substrate protein remaining %≤ 100%)
O=C1CCN(N2Cc3cc(CN4CCN(c5cnnc(Cl)c5Cl)CC4)ccc3C2=O)C(=O)N1 [GT-07029, 1-(5-((4-(5,6-dichloropyridazin-4-yl)piperazin-1-yl)methyl)-1-oxoisoindolin-2-yl)dihydropyrimidine-2,4(1H,3H)-dione] | A ("A" is defined as 0% ≤ substrate protein remaining % ≤ 80%) | A ("A" is defined as 0% ≤ substrate protein remaining % ≤ 80%) | A ("A" is defined as 0% ≤ substrate protein remaining % ≤ 80%) | B ("B" is defined as 80%< substrate protein remaining %≤ 100%) | B ("B" is defined as 80%< substrate protein remaining %≤ 100%) | B ("B" is defined as 80%< substrate protein remaining %≤ 100%)
O=C1CCN(N2Cc3cc(CN4CCN(c5cc(Cl)nnc5Cl)CC4)ccc3C2=O)C(=O)N1 [GT-07030, 1-(5-((4-(3,6-dichloropyridazin-4-yl)piperazin-1-yl)methyl)-1-oxoisoindolin-2-yl)dihydropyrimidine-2,4(1H,3H)-dione] | B ("B" is defined as 80%< substrate protein remaining %≤ 100%) | A ("A" is defined as 0% ≤ substrate protein remaining % ≤ 80%) | B ("B" is defined as 80%< substrate protein remaining %≤ 100%) | B ("B" is defined as 80%< substrate protein remaining %≤ 100%) | B ("B" is defined as 80%< substrate protein remaining %≤ 100%) | B ("B" is defined as 80%< substrate protein remaining %≤ 100%)
O=C1CCN(N2Cc3cc(CN4CCN(c5ncncn5)CC4)ccc3C2=O)C(=O)N1 [GT-07031, 1-(5-((4-(1,3,5-triazin-2-yl)piperazin-1-yl)methyl)-1-oxoisoindolin-2-yl)dihydropyrimidine-2,4(1H,3H)-dione] | A ("A" is defined as 0% ≤ substrate protein remaining % ≤ 80%) | B ("B" is defined as 80%< substrate protein remaining %≤ 100%) | B ("B" is defined as 80%< substrate protein remaining %≤ 100%) | A ("A" is defined as 0% ≤ substrate protein remaining % ≤ 80%) | A ("A" is defined as 0% ≤ substrate protein remaining % ≤ 80%) | A ("A" is defined as 0% ≤ substrate protein remaining % ≤ 80%)
